“Also recorded” adds a separate entry of the source.
Key:
NHBE cells = details: cited from earlier work
in vitro = details: human
16HBE14o- cells = details: cited from earlier work
Calu-3 cells [1] = details: cited from earlier work
[2] = potentiometric logP, water-octanol (SiriusT3); format: physicochemical; details: experimental, mean ± S.D., n = 3
Description: LogP (partition coefficient) evaluation was performed via SiriusT3. The potentiometric logP measurement relies on assessing the partition profile of the test substance within a two-phase water-octanol solvent system. Changes in the relative volume ratio of octanol to water lead to shifts in the apparent pKa, resulting from the partitioning between non-ionised and ionised forms. LogP values were then estimated based on these assessments.

Calu-3 cells [3] = assay: Calu-3 cell viability, MTT assay; details: MTT
Calu-3 monolayer [4] = assay: MTT assay on Calu-3 monolayer after permeability study; format: cell-based, human; details: after B-A permeability study
Description: To assess potential cytotoxic effects on the monolayer, cell culture medium (10% FBS, 1% P/S) containing 0.45 mg/mL MTT reagent was added to the inserts (300 µL) and wells (1500 µL). Cells treated with fluorescein (40 µg/mL) served as a control. Samples were then incubated for 3.5 hours at 37°C. Following incubation, the MTT solution was removed, and DMSO was added to dissolve the formazan crystals (300 µL for inserts; 1500 µL for wells). The plates were incubated on a shaking platform at 200 rpm in the absence of light for 30 minutes. Subsequently, 100 µL samples from each well were pipetted into a 96-well plate, and the absorbance was measured at 570 nm using an Epoch 2 spectrophotometer.

[5] = UV-metric pKa measurement (SiriusT3); format: physicochemical; details: experimental, SiriusT3, 25 °C, mean ± S.D.
Description: Experimental pKa (−log10 of the acid dissociation equilibrium constant) values of SGC and SGD were evaluated using the UV-metric pKa measurement method of the SiriusT3 automated titrator instrument and the corresponding software SiriusT3Control and SiriusT3Refine (Pion Inc., Billerica, USA). The SiriusT3 apparatus uses a deuterium lamp to determine the UV/Vis absorbance spectrum of the test solutions at each pH point. The standard aqueous UV-metric pKa measurement protocol was conducted according to manufacturer instructions. […] This was mixed with 25 μL phosphate buffer (14.7 mM K2HPO4 and 0.15 M KCl in MilliQ water) and diluted with 1.5 mL ionic strength-adjusted water (ISA water ≡ 0.15 M KCl in MilliQ water). The subsequent acid/base titration and measurement of UV absorbance was automatically performed by the SiriusT3 at 25.0 ± 0.5 °C. […] Turbidity was monitored by a turbidity sensor to ensure the absence of precipitation of the test compounds during the experiment, since accurate pKa measurements are limited to fully dissolved substances. In case turbidity occurred, individual titrations were not used for further analysis, resulting in a total of 11 analysable titrations across the 5 replicate samples for both SGC and SGD.

[6] = pH-dependent thermodynamic solubility, miniaturized shake-flask method, UPLC-PDA
Calu-3 monolayer [7] = assay: bidirectional permeability across Calu-3 monolayer; details: for concentration in the acceptor chamber (B-A): n = 3
[8] = mice, doses up to 100 mg/kg, ref Langeder et al., 2023b; cited from earlier work
[9] = control experiments for serum binding and adsorption to plastic
Calu-3 monolayer [10] = assay: TEER of Calu-3 monolayer before and after permeability study
Calu-3 cells [11] = assay: Calu-3 cell uptake, FIA-TOFMS; format: in vitro ADME, human; details: 50 µg/mL; for Concentration [pg/µL] 1 in cell extract / Normalized concentration [pg/cell] 1: replicate 1; for Concentration [pg/µL] 2 in cell extract / Normalized concentration [pg/cell] 2: replicate 2; for Concentration [pg/µL] 3 in cell extract / Normalized concentration [pg/cell] 3: replicate 3
Description: At 4, 12, and 24 h after addition, cell extracts were generated in triplicates. To that end, the medium was aspirated from the respective wells, and cells were washed with pre-warmed ammonium carbonate solution (75 mM, pH 7.4, 37 °C). Immediately after removal of the wash solvent, 300 μL cold extraction solvent (40:40:20 acetonitrile:methanol:water, −20 °C) was added per well to lyse cells in situ and stop the enzymatic activity. The bottom of each well was subsequently scraped and the cell extracts were transferred to 96-well storage plates and stored at −80 °C until analysis. […] Quantification of SGC and SGD was performed using flow-injection time-of-flight mass spectrometry (FIA-TOFMS) in negative ion mode as described previously ([Fuhrer et al., 2011]). SGC and SGD signals were identified by matching accurate masses (for both [M-H]- at 707.2127 m/z). To account for possible influences of the complex matrix in the cell extract samples, a matrix-matched series of calibration samples were prepared, in which increasing concentrations of SGC were spiked into extracts of cells that had not previously been treated with either SGC or SGD. The calibration samples were injected alongside the cell extract samples and used to establish a calibration function using linear regression. The ion intensities measured were converted into SGC and SGD concentrations and normalized by the cell number in each sample, which was determined at each time point in separate cell cultures using trypan blue staining and cell counting in a Thermo Fisher Countess II Automated cell counter after trypsin-mediated cell detachment. This procedure eventually yielded estimates of SGC and SGD contents in pg/cell.

SARS-CoV-2 = test system: SARS-CoV-2; parameters: method as in Wasilewicz et al., 2023; details: reported to be based on inhibition of the viral main protease, ref Wasilewicz et al., 2023; read-out: anti-SARS-CoV-2 activity IC50; cited from earlier work

Question: Which results are given for `COCCc1ccc(OCC(O)CNC(C)C)cc1` (stereo not drawn) [metoprolol]?
Answer: Papp (NHBE cells): 11.3 ± 0.7 × 10^−6 cm/s; Papp A→B at 2 h, 500 μM (in vitro): 25.4 ± 6.9 ×10⁻⁶ cm/s; Papp B→A at 2 h, 500 μM (in vitro): 23.3 ± 4.9 ×10⁻⁶ cm/s; Papp (16HBE14o- cells): 24.5 ± 2.5 × 10^−6 cm/s; Papp (Calu-3 cells [1]): 10.3 ± 0.0 × 10^−6 cm/s

Question: For sanggenon D [SGD], which logP [2] is on record?
Answer: 2.92 ± 0.07

Question: What about the cytotoxic effects (Calu-3 cells [3]; 50 μg/mL, 4-h and 12-h incubation) of the same compound?
Answer: no cytotoxic effects were observed

Question: And the CC50 (Calu-3 cells [3]; Calu-3 cells, 24 h exposure)?
Answer: 120.5 µg/mL

Question: What about the “cytotoxic effects on Calu-3 monolayer after permeability study (MTT)” value (Calu-3 monolayer [4]) of the same compound?
Answer: Neither batch 1 nor batch 2 showed a decrease in cell viability; also recorded: no cytotoxic effects

Question: What about the “pKa 1” value [5] of the same compound?
Answer: 3.27 ± 0.37

Question: What about the “pKa 2” value [5] of the same compound?
Answer: 6.37 ± 0.13

Question: What about the “pKa 3” value [5] of the same compound?
Answer: 7.25 ± 0.32

Question: What about the “pKa 4” value [5] of the same compound?
Answer: 7.99 ± 0.26

Question: And the “pKa 5” value [5]?
Answer: 8.99 ± 0.08

Question: What about the “pKa 6” value [5] of the same compound?
Answer: 9.94 ± 0.04

Question: And the “pKa 7” value [5]?
Answer: 10.78 ± 0.01

Question: What about the “pKa 8” value [5] of the same compound?
Answer: 12.04 ± 0.07

Question: And the “pH 1.2 solubility” value ([6]; compound within extract MA21, pH 1.2)?
Answer: < LOQ

Question: What about the “pH 4.5 solubility” value ([6]; compound within extract MA21, pH 4.5) of the same compound?
Answer: < LOQ

Question: And the “pH 6.8 solubility” value ([6]; compound within extract MA21, pH 6.8)?
Answer: < LOQ

Question: And the “pH 7.4 solubility” value ([6]; compound within extract MA21, pH 7.4)?
Answer: < LOQ

Question: What about the “pH 1.2 solubility” value ([6]; compound within extract MA60, pH 1.2) of the same compound?
Answer: 20.6 µg/mL

Question: What about the “pH 4.5 solubility” value ([6]; compound within extract MA60, pH 4.5) of the same compound?
Answer: 19.7 µg/mL

Question: What about the “pH 6.8 solubility” value ([6]; compound within extract MA60, pH 6.8) of the same compound?
Answer: 56.8 µg/mL

Question: And the “pH 7.4 solubility” value ([6]; compound within extract MA60, pH 7.4)?
Answer: 94.9 µg/mL

Question: And the “pH 1.2 solubility” value ([6]; isolated compound, HCl buffer pH 1.2, 24 h, 24 °C)?
Answer: 111 µg/mL

Question: What about the “pH 4.5 solubility” value ([6]; isolated compound, acetate buffer pH 4.5, 24 h, 24 °C) of the same compound?
Answer: 121 µg/mL

Question: And the “pH 6.8 solubility” value ([6]; isolated compound, phosphate buffer pH 6.8, 24 h, 24 °C)?
Answer: 304 µg/mL

Question: And the “pH 7.4 solubility” value ([6]; isolated compound, phosphate buffer pH 7.4, 24 h, 24 °C)?
Answer: 493 µg/mL

Question: And the “amount detected in the acceptor chamber (B-A)” value (Calu-3 monolayer [7]; B-A, 2 h, isolated SGD or extracts)?
Answer: < 0.6%

Question: What about the “concentration in the acceptor chamber (B-A)” value (“concentration … (B-A)” below) (Calu-3 monolayer [7]; SGD after applying MA21 600 μg/mL, B-A, 2 h) of the same compound?
Answer: 7.9 ± 4.2 ng/mL

Question: What about the “concentration … (B-A)” value (Calu-3 monolayer [7]; SGD after applying MA60 100 μg/mL, B-A, 2 h) of the same compound?
Answer: 10.6 ± 5.7 ng/mL

Question: And the “permeability across intact Calu-3 monolayers” value (Calu-3 monolayer [7]; abstract statement)?
Answer: no measurable permeability

Question: What about the “evidence for permeability of SGC or SGD” value (Calu-3 monolayer [7]; applied as extracts MA60 (100 μg/mL) and MA21 (600 μg/mL), 2 h) of the same compound?
Answer: Neither by applying the isolated compounds nor the extracts MA60 and MA21, any evidence for the permeability of SGC or SGD was detectable

Question: And the “concentration … (B-A)” value (Calu-3 monolayer [7]; isolated SGD 20 μg/mL applied, B-A, 2 h)?
Answer: 35.4 ± 15.1 ng/mL

Question: What about the “detection in the acceptor chamber after 2 h of incubation (A-B direction)” value (Calu-3 monolayer [7]; isolated compound 20 μg/mL, A-B) of the same compound?
Answer: could not be detected

Question: And the “serum and tissue concentrations after oral administration” value [8]?
Answer: low serum and tissue concentrations

Question: And the “binding to serum proteins” value [9]?
Answer: no indication that SGC or SGD bind to serum proteins

Question: And the “change in TEER during permeability study, B-A direction” value (Calu-3 monolayer [10]; 20 µg/mL in basolateral chamber, 2 h, Calu-3 batch 1)?
Answer: significant decrease in TEER values; also recorded: loss in TEER

Question: And the “TEER after 24 h of incubating with medium at 37 °C” value (Calu-3 monolayer [10]; B-A directed test wells after permeability study)?
Answer: showed a recovery in TEER; also recorded: recovery to initial values

Question: And the “intracellular content, Mean [pg/cell]” value (Calu-3 cells [11]; 4 h)?
Answer: 0.3 ± 0.2 pg/cell

Question: And the “Concentration [pg/µL] 1 in cell extract” value (Calu-3 cells [11]; 4 h)?
Answer: 449 pg/µL

Question: And the “Normalized concentration [pg/cell] 1” value (Calu-3 cells [11]; 4 h)?
Answer: 0.23 pg/cell

Question: And the “Concentration [pg/µL] 2 in cell extract” value (Calu-3 cells [11]; 4 h)?
Answer: 281 pg/µL

Question: What about the “Normalized concentration [pg/cell] 2” value (Calu-3 cells [11]; 4 h) of the same compound?
Answer: 0.14 pg/cell

Question: And the “Concentration [pg/µL] 3 in cell extract” value (Calu-3 cells [11]; 4 h)?
Answer: 1158 pg/µL

Question: What about the “Normalized concentration [pg/cell] 3” value (Calu-3 cells [11]; 4 h) of the same compound?
Answer: 0.60 pg/cell

Question: And the “intracellular content, Mean [pg/cell]” value (Calu-3 cells [11]; 4 h, listed as Sanggenon D)?
Answer: 0.32 pg/cell

Question: And the “intracellular content, Mean [pg/cell]” value (Calu-3 cells [11]; 12 h)?
Answer: 0.54 pg/cell

Question: And the “Concentration [pg/µL] 1 in cell extract” value (Calu-3 cells [11]; 12 h)?
Answer: 1137 pg/µL

Question: What about the “Normalized concentration [pg/cell] 1” value (Calu-3 cells [11]; 12 h) of the same compound?
Answer: 0.57 pg/cell

Question: And the “Concentration [pg/µL] 2 in cell extract” value (Calu-3 cells [11]; 12 h)?
Answer: 1116 pg/µL

Question: And the “Normalized concentration [pg/cell] 2” value (Calu-3 cells [11]; 12 h)?
Answer: 0.55 pg/cell

Question: What about the “Concentration [pg/µL] 3 in cell extract” value (Calu-3 cells [11]; 12 h) of the same compound?
Answer: 1014 pg/µL

Question: And the “Normalized concentration [pg/cell] 3” value (Calu-3 cells [11]; 12 h)?
Answer: 0.50 pg/cell

Question: And the “intracellular content, Mean [pg/cell]” value (Calu-3 cells [11]; 24 h)?
Answer: 0.69 pg/cell

Question: What about the “Concentration [pg/µL] 1 in cell extract” value (Calu-3 cells [11]; 24 h) of the same compound?
Answer: 1552 pg/µL

Question: And the “Normalized concentration [pg/cell] 1” value (Calu-3 cells [11]; 24 h)?
Answer: 0.59 pg/cell

Question: What about the “Concentration [pg/µL] 2 in cell extract” value (Calu-3 cells [11]; 24 h) of the same compound?
Answer: 2206 pg/µL

Question: And the “Normalized concentration [pg/cell] 2” value (Calu-3 cells [11]; 24 h)?
Answer: 0.84 pg/cell

Question: And the “Concentration [pg/µL] 3 in cell extract” value (Calu-3 cells [11]; 24 h)?
Answer: 1671 pg/µL

Question: What about the “Normalized concentration [pg/cell] 3” value (Calu-3 cells [11]; 24 h) of the same compound?
Answer: 0.63 pg/cell

Question: And the IC50 (SARS-CoV-2)?
Answer: 13.9 µM

Reference: paper PMC11381475, “Biopharmaceutical profiling of anti-infective sanggenons from Morus alba root bark for inhalation administration” (International Journal of Pharmaceutics: X, 2024)
